This note sets out measurements from US11236047B2 (ASTEX THERAPEUTICS LIMITED, priority 2017, dated 2022).

pIC50: −log10 of the molar value.

Usually IC50 stands for the concentration at which inhibition is half-maximal. The pIC50 is −log10 of the IC50, conventionally taken in molar units.

In the first assay the test system is SJSA-1 cells. Description: Protocol B: SJSA-1 CellTiter-Glo luminescent cell viability assay. The following applies: Homo sapiens, SJSA-1, read-out: SJSA1 IC50 (μM) (Protocol B), SJSA-1, Protocol B. (In general: In ATP-based viability assays light output follows the ATP content of the culture.)
Consider `CC(O)(c1cc(F)c2c(c1)C(=O)N(Cc1ccc(Cl)cn1)[C@@]2(OCC1(O)CC1)c1ccc(Cl)cc1)c1ncccn1` (single isomer, unassigned) [Example 396], for which the IC50 came out at 0.28 µM.

`CC(O)(c1cc(F)c2c(c1)C(=O)N(Cc1ncc(Cl)cn1)[C@@]2(OCC1(O)CC1)c1ccc(Cl)cc1)C1CCS(=O)(=O)CC1` (single isomer, unassigned) [Example 397]: the concentration for half-maximal inhibition (IC50) was found to be 2.5 µM.

Turning to `CO[C@]1(c2ccc(Cl)cc2)c2c(F)cc(C(C)(O)c3cnn(C4CN(C(C)=O)C4)c3)cc2C(=O)N1Cc1ccc(Cl)cn1` (stereo partly drawn) [Example 182, (3R)-6-{1-[1-(1-Acetylazetidin-3-yl)-1H-pyrazol-4-yl]-1-hydroxyethyl}-3-(4-chlorophenyl)-2-[(5-chloropyridin-2-yl)methyl]-4-fluoro-3-methoxy-2,3-dihydro-1H-isoindol-1-one], the IC50 was determined as 0.88 µM.

Take `CO[C@]1(c2ccc(Cl)cc2)c2c(F)cc(C(C)(O)c3cnn(CCN(C)C)c3)cc2C(=O)N1Cc1ccc(Cl)cn1` (stereo partly drawn) [Example 191, (3R)-3-(4-Chlorophenyl)-2-[(5-chloropyridin-2-yl)methyl]-6-(1-{1-[2-(dimethylamino)ethyl]-1H-pyrazol-4-yl}-1-hydroxyethyl)-4-fluoro-3-methoxy-2,3-dihydro-1H-isoindol-1-one]: the half-inhibitory concentration (IC50) is 2.5 µM.

As to `Cn1cc(C(C)(O)c2cc(F)c3c(c2)C(=O)N(Cc2ccc(F)cn2)[C@@]3(OCC2(C(N)=O)CC2)c2ccc(Cl)cc2)cn1` (stereo partly drawn) [Example 209, 1-({[(1R)-1-(4-chlorophenyl)-7-fluoro-2-[(5-fluoropyridin-2-yl)methyl]-5-[1-hydroxy-1-(1-methyl-1H-pyrazol-4-yl)ethyl]-3-oxo-2,3-dihydro-1H-isoindol-1-yl]oxy}methyl)cyclopropane-1-carboxamide], the IC50 amounted to 0.45 µM.

For the molecule `Cn1cc(C(C)(O)c2cc(F)c3c(c2)C(=O)N(Cc2ccc(C#N)cn2)[C@@]3(OCC2(C#N)CC2)c2ccc(Cl)cc2)cn1` (stereo partly drawn) [Example 211, 6-{[(1R)-1-(4-chlorophenyl)-1-[(1-cyanocyclopropyl)methoxy]-7-fluoro-5-[1-hydroxy-1-(1-methyl-1H-pyrazol-4-yl)ethyl]-3-oxo-2,3-dihydro-1H-isoindol-2-yl]methyl}pyridine-3-carbonitrile], the IC50 is 0.36 µM.

For `Cn1cc(C(C)(O)c2cc(F)c3c(c2)C(=O)N(Cc2ccc(Cl)cn2)[C@@]3(OCCO)c2ccc(Cl)cc2)cn1` (stereo partly drawn) [Example 213, (3R)-3-(4-chlorophenyl)-2-[(5-chloropyridin-2-yl)methyl]-4-fluoro-6-[1-hydroxy-1-(1-methyl-1H-pyrazol-4-yl)ethyl]-3-(2-hydroxyethoxy)-2,3-dihydro-1H-isoindol-1-one], the IC50 is 0.25 µM.

In the case of `Cn1cc(C(C)(O)c2cc(F)c3c(c2)C(=O)N(Cc2ncc(Cl)cn2)[C@@]3(OCC2(C(N)=O)CC2)c2ccc(Cl)cc2)cn1` (stereo partly drawn) [Example 214, 1-({[(1R)-1-(4-chlorophenyl)-2-[(5-chloropyrimidin-2-yl)methyl]-7-fluoro-5-[1-hydroxy-1-(1-methyl-1H-pyrazol-4-yl)ethyl]-3-oxo-2,3-dihydro-1H-isoindol-1-yl]oxy}methyl)cyclopropane-1-carboxamide], the IC50 turned out to be 0.22 µM.

For the molecule `COc1ccc(CN2C(=O)c3cc(C(C)(O)c4cnn(C)c4)cc(F)c3[C@]2(OCC2(C(N)=O)CC2)c2ccc(Cl)cc2)cn1` (stereo partly drawn) [Example 216, 1-({[(1R)-1-(4-chlorophenyl)-7-fluoro-5-[1-hydroxy-1-(1-methyl-1H-pyrazol-4-yl)ethyl]-2-[(6-methoxypyridin-3-yl)methyl]-3-oxo-2,3-dihydro-1H-isoindol-1-yl]oxy}methyl)cyclopropane-1-carboxamide], the IC50 amounted to 0.28 µM.

For `CC(O)(c1cc(F)c2c(c1)C(=O)N(Cc1ccc(C#N)cn1)[C@@]2(OCC1(C#N)CC1)c1ccc(Cl)cc1)C1CCOCC1` (stereo partly drawn) [Example 282, 6-{[(1R)-1-(4-chlorophenyl)-1-[(1-cyanocyclopropyl)methoxy]-7-fluoro-5-[1-hydroxy-1-(oxan-4-yl)ethyl]-3-oxo-2,3-dihydro-1H-isoindol-2-yl]methyl}pyridine-3-carbonitrile], the IC50 stood at 0.061 µM.

For `CC(O)(c1cc(F)c2c(c1)C(=O)N(Cc1ncc(Cl)cn1)[C@@]2(OCC1(C(N)=O)CC1)c1ccc(Cl)cc1)C1CCOCC1` (stereo partly drawn) [Example 284, 1-({[(1R)-1-(4-chlorophenyl)-2-[(5-chloropyrimidin-2-yl)methyl]-7-fluoro-5-[1-hydroxy-1-(oxan-4-yl)ethyl]-3-oxo-2,3-dihydro-1H-isoindol-1-yl]oxy}methyl)cyclopropane-1-carboxamide], the IC50 was found to be 0.017 µM.

As for `CO[C@]1(c2ccc(Cl)cc2)c2c(F)cc(C(C)(O)C3CN(C(=O)CO)C3)cc2C(=O)N1Cc1ccc(Cl)cn1` (stereo partly drawn) [Example 391, (3R)-3-(4-chlorophenyl)-2-[(5-chloropyridin-2-yl)methyl]-4-fluoro-6-{1-hydroxy-1-[1-(2-hydroxyacetyl)azetidin-3-yl]ethyl}-3-methoxy-2,3-dihydro-1H-isoindol-1-one], the IC50 worked out at 0.66 µM.

The assay is the same for the next values; noted with them: Homo sapiens, SJSA-1, read-out: SJSA1 IC50 (μM), Protocol B, SJSA-1.
Turning to `CCC(O)(c1cc(F)c2c(c1)C(=O)N(Cc1ccc(Cl)nc1)[C@@]2(OCCO)c1ccc(Cl)cc1)c1cn(C)cn1` (stereo partly drawn) [Example 367, (3R)-3-(4-chlorophenyl)-2-[(6-chloropyridin-3-yl)methyl]-4-fluoro-6-[1-hydroxy-1-(1-methyl-1H-imidazol-4-yl)propyl]-3-(2-hydroxyethoxy)-2,3-dihydro-1H-isoindol-1-one], the IC50 was 0.11 µM.

The assay is the same for the next values; noted with them: read-out: SJSA1 IC50 (μM) (Protocol B); SJSA-1, Protocol B.
For `CC(O)(c1cc(F)c2c(c1)C(=O)N(Cc1ncc(Cl)cn1)[C@@]2(OCC1(C(N)=O)CC1)c1ccc(Cl)cc1)C1CCC1` (single isomer, unassigned) [Example 403], the IC50 turned out to be 1.2 µM.

Regarding `CC(O)(c1cc(F)c2c(c1)C(=O)N(Cc1ncc(Cl)cn1)[C@@]2(OCC1(C(N)=O)CC1)c1ccc(Cl)cc1)C1CCC1` (single isomer, unassigned) [Example 404], the IC50 turned out to be 0.095 µM.

Regarding `CC(O)(c1cc(F)c2c(c1)C(=O)N(Cc1ccc(C#N)cn1)[C@@]2(OCCO)c1ccc(Cl)cc1)C1CCC1` (single isomer, unassigned) [Example 405], the IC50 was determined as 0.63 µM.

In the case of `CC(O)(c1cc(F)c2c(c1)C(=O)N(Cc1ccc(C#N)cn1)[C@@]2(OCCO)c1ccc(Cl)cc1)C1CCC1` (single isomer, unassigned) [Example 406], the IC50 stood at 3.9 µM.

Turning to `CO[C@]1(c2ccc(Cl)cc2)c2c(F)cc(C(C)(O)c3cn(C)c(C)n3)cc2C(=O)N1Cc1ccc(Cl)cn1` (stereo partly drawn) [Example 161, (3R)-3-(4-Chlorophenyl)-2-[(5-chloropyridin-2-yl)methyl]-6-[1-(1,2-dimethyl-1H-imidazol-4-yl)-1-hydroxyethyl]-4-fluoro-3-methoxy-2,3-dihydro-1H-isoindol-1-one], the IC50 was found to be 4.3 µM.

`CO[C@]1(c2ccc(Cl)cc2)c2c(F)cc(C(C)(O)c3cnn(CCN(C)C)c3)cc2C(=O)N1Cc1ccc(Cl)cn1` (stereo partly drawn) [Example 192, (3R)-3-(4-Chlorophenyl)-2-[(5-chloropyridin-2-yl)methyl]-6-(1-{1-[2-(dimethylamino)ethyl]-1H-pyrazol-4-yl}-1-hydroxyethyl)-4-fluoro-3-methoxy-2,3-dihydro-1H-isoindol-1-one]: the half-inhibitory concentration (IC50) amounted to 1.4 µM.

In the case of `COc1ccc(CN2C(=O)c3cc(C(C)(O)c4cnn(C)c4)cc(F)c3[C@]2(OCC2(CO)CC2)c2ccc(Cl)cc2)cn1` (stereo partly drawn) [Example 219, (3R)-3-(4-chlorophenyl)-4-fluoro-6-[1-hydroxy-1-(1-methyl-1H-pyrazol-4-yl)ethyl]-3-{[1-(hydroxymethyl)cyclopropyl]methoxy}-2-[(6-methoxypyridin-3-yl)methyl]-2,3-dihydro-1H-isoindol-1-one], the IC50 turned out to be 0.11 µM.

As to `COc1ccc(CN2C(=O)c3cc(C(C)(O)c4cnn(C)c4)cc(F)c3[C@]2(OCC2(CO)CC2)c2ccc(Cl)cc2)nc1` (stereo partly drawn) [Example 224, (3R)-3-(4-chlorophenyl)-4-fluoro-6-[1-hydroxy-1-(1-methyl-1H-pyrazol-4-yl)ethyl]-3-{[1-(hydroxymethyl)cyclopropyl]methoxy}-2-[(5-methoxypyridin-2-yl)methyl]-2,3-dihydro-1H-isoindol-1-one], the IC50 was 0.12 µM.

With `CO[C@]1(c2ccc(Cl)cc2)c2c(F)cc(C(C)(O)C3CN(C(C)=O)C3)cc2C(=O)N1Cc1ccc(Cl)cn1` (stereo partly drawn) [Example 389, (3R)-6-[1-(1-acetylazetidin-3-yl)-1-hydroxyethyl]-3-(4-chlorophenyl)-2-[(5-chloropyridin-2-yl)methyl]-4-fluoro-3-methoxy-2,3-dihydro-1H-isoindol-1-one], the IC50 stood at 4.2 µM.

Turning to `CO[C@]1(c2ccc(Cl)cc2)c2c(F)cc(C(C)(O)C3CN(C(C)=O)C3)cc2C(=O)N1Cc1ccc(Cl)cn1` (stereo partly drawn) [Example 390, (3R)-6-[1-(1-acetylazetidin-3-yl)-1-hydroxyethyl]-3-(4-chlorophenyl)-2-[(5-chloropyridin-2-yl)methyl]-4-fluoro-3-methoxy-2,3-dihydro-1H-isoindol-1-one], the half-maximal inhibitory concentration (IC50) turned out to be 0.63 µM.

The same assay, now with this note: read-out: SJSA1 IC50; Protocol B, SJSA-1.
With `CCC(O)(c1cc(F)c2c(c1)C(=O)N(Cc1ncc(C#N)cn1)[C@@]2(O[C@H]1CCOC1)c1ccc(Cl)cc1)c1cn(C)cn1` (single isomer, unassigned) [Example 369], the pIC50 is 7.21.

Take `CCC(O)(c1cc(F)c2c(c1)C(=O)N(Cc1ncc(C#N)cn1)[C@@]2(OC[C@H]1C[C@H](O)C1)c1ccc(Cl)cc1)c1cn(C)cn1` (single isomer, unassigned) [Example 484]: the pIC50 was 5.31.

Take `CCC(O)(CN1CCN(C)CC1)c1cc(F)c2c(c1)C(=O)N(Cc1ncc(Cl)cn1)[C@@]2(OCCO)c1ccc(Cl)cc1` (single isomer, unassigned) [Example 532]: the pIC50 was 6.85.

`CCC(O)(CN1CCNCC1)c1cc(F)c2c(c1)C(=O)N(Cc1ncc(Cl)cn1)[C@@]2(OCC1(C#N)CC1)c1ccc(Cl)cc1` (single isomer, unassigned) [Example 537]: the pIC50 is 6.12.
